Converted amounts (≈) assume the structure as drawn. Where two headings read alike, the source gives them in different places.
Columns and labels:
[1] = test system: S. aureus ATCC 25923 biofilms; assay: ATP release from biofilms, BacTiter-Glo bioluminescent assay; format: cell-based, Staphylococcus aureus; conditions: 100 μM; 1 h exposure (FIG. 2A)
Source text: (§1) A: quantification of ATP release from the S. aureus ATCC 25923 biofilms using the BacTiter-Glo bioluminescent assay. B: quantification of membrane depolarization in treated biofilms by the potential-sensitive DiABC(4)3 probe; this probe can only enter depolarized cells, where it experienced an enhanced fluorescence signal upon binding to intracellular proteins. For statistical comparisons between the treated and untreated samples, an unpaired t-test with Welch's correction was used, using GraphPad Prism (v 5.0 for Mac OS X).
(§2) ATP release from the biofilms after 1 h exposure to compounds 22 and 25 at 100 μM was quantified on the culture media, using the BacTiter-Glo bioluminescent assay. […] ATP release can be often associated to membrane depolarization events. Here, such events were followed by the increase in fluorescence emission of the DiBAC4(3) probe, as in Okuda et al. (2013).

[2] = test system: S. epidermidis ATCC 35984; assay: Anti-biofilm activity against S. epidermidis ATCC 35984; format: cell-based, Staphylococcus epidermidis; conditions: tested at IC50 conc. measured against S. aureus ATCC 25923
Procedure: (§3) Four of the compounds were also tested against gram-negative E. coli biofilms as well as other Staphylococcal strains, at the corresponding IC50 values measured against S. aureus ATCC 25923 (Table 4). […] Nonetheless, all the compounds presented below were found active against S. epidermidis (ATCC 12228 and ATCC 35984) strains (Table 3).

[3] = test system: S. aureus ATCC 25923 biofilms; assay: Viable plate counts and Log Reduction of S. aureus ATCC 25923 biofilms; format: cell-based, Staphylococcus aureus; conditions: 400 μM, viable plate counts
Procedure: The viability of S. aureus (ATCC 25923) biofilms left upon exposure to compounds 20, 21, 22 and 25 was determined using viable plate counts and calculating the Log Reduction (Log R) value. This procedure involves scrapping the biofilms off the substrate, disaggregating them by sonication and plating the resulting suspension in agar. The method is highly laborious but it is the gold standard for the quantification of anti-biofilm efficacy (Pitts et al. 2003). […] Of note, a log R value of 2 represents a reduction of 99% of the viable cells in the biofilms, and typically, a log R of 3 is considered a relevant indicator of the compound efficacy as an anti-biofilm agent.

single-cell bacteria = assay: Antibacterial activity (MIC) against single-cell (planktonic) bacteria; format: cell-based; conditions: Staphylococcus aureus, in the absence of biofilms, strain not stated
Source text: We selected six of the active compounds in the post-exposure assays namely, compounds 20, 21, 22, 25, 31 and 32 for the follow-up studies. […] In this mode of the assay, the interaction of the compounds occurs initially with single-cell bacteria (that is, a planktonic solution) before biofilms are formed. Therefore, we tested additionally if the compounds could exert antibacterial activity against single-cell bacteria, in the absence of biofilms. Based solely on conventional MIC and MBC values, antibacterial activities against single-cell bacteria were also high for the derivatives. […] The antibacterial activity order 22>21>25>31>20>32 correlated very well with the measured activity in preventing biofilm formation.

[4] = test system: S. aureus ATCC 25923 biofilms; assay: Anti-biofilm viability assay with redox dye, pre- and post-exposure, S. aureus ATCC 25923 biofilms; format: cell-based, Staphylococcus aureus; conditions: for IC50 / inhibition at 400 µM: S. aureus ATCC 25923; for inhibition at 400 µM: ATCC25923; for reduction of the viable biofilm cells: time-course on existing biofilms, within the first hour (FIG. 1)
E. coli XL1 blue = assay: Anti-biofilm activity against E. coli XL1 blue biofilms; format: cell-based, Escherichia coli; conditions: tested at IC50 conc. measured against S. aureus ATCC 25923
Procedure: as §3

[5] = test system: S. aureus ATCC 25923 biofilms; assay: Membrane depolarization in biofilms, DiBAC4(3) probe; format: cell-based, Staphylococcus aureus; conditions: 1 h exposure to the biofilms (FIG. 2B)
Source text: as §1, §2

HL cells [6] = assay: Biocompatibility index (LC50 in HL cells / concentration causing 3-log reduction of planktonic bacteria); format: cell-based, human; conditions: ratio LC50 (HL cells) / concentration causing 3-log reduction in planktonic bacterial burden
Procedure: Additionally, the biocompatibility index (BI) was calculated for compound 22, to assess the overall impact of its antimicrobial activity, using an adaptation of the equation described for antiseptics by Muller and Kramer, 2008. BI, as originally defined by these authors, is a dimensionless parameter resulting from the ratio of the in vitro cytotoxicity values (in this case, half-lethal concentrations, LC50) to the concentration of the compound causing a 3-log reduction in the viable counts of suspended bacteria. Compounds with BI<1 are deemed as less promising, due to their potential toxic effects. Thus BI is a very useful tool for the quick exclusion of undesired toxic scaffolds or weak hits in early stage of development of anti-biofilm molecules. For the determination of the BI, acute cytotoxicity of compound 22 was measured in the same cell line described earlier (HL cells), using the resazurin assay as in Karlsson et al, 2012. The ratio of the half lethal concentration (LC50) and the concentration causing 3-log reduction in the planktonic bacterial burden was calculated (both expressed in […]), as below:
The BI value of compound 22 was clearly higher than 1, which is indicative of an adequate combination of an effective anti-biofilm activity with a low cytotoxicity. It is thus expected that toxic effects can be minimized in the host organisms exposed to compound 22.

[7] = test system: S. epidermidis ATCC 12228; assay: Anti-biofilm activity against S. epidermidis ATCC 12228; format: cell-based, Staphylococcus epidermidis; conditions: tested at IC50 conc. measured against S. aureus ATCC 25923
Procedure: as §3

S. aureus Newman = assay: Anti-biofilm potency against S. aureus Newman biofilms; format: cell-based, Staphylococcus aureus; conditions: Staphylococcus aureus, S. aureus Newman
Source text: In fact, only 2-3 fold-higher concentrations of the compounds were needed to kill existing biofilms, in comparison to inhibiting bacterial colonization. […] Anti-biofilm potencies were all in the micromolar range and they were particularly significant for compound 22. […] The activity was also confirmed against S. aureus Newman strain. Potency values calculated for the S. aureus Newman (Table 3) were very similar to the values registered for S. aureus ATCC 25923.

HL cells [8] = assay: Tolerability of mammalian cells, resazurin viability assay; format: cell-based, human; conditions: 24 hours exposure, HL cells
Procedure: Viability values were measured in acute conditions (24 hours exposure) using the resazurin assay as in Karlsson et al, 2012 (Eur J Pharm Sci. 2012 Aug 30;47(1):190-205). […] The least tolerated molecule was 25, as only 23% (±5.9) of cells remained viable upon exposure to 100 μM. However, concentrations up to 30 μM caused no cytotoxicity (90.2% of viable cells, ±0.5).

[9] = Staphylococcus aureus, ATCC25923, 50% inhibition of biofilm viability, read-out: Potency, IC50 Prior-to-biofilm formation
[10] = Staphylococcus aureus, ATCC25923, 50% inhibition of biofilm viability, value in parentheses, read-out: Potency, IC50 Prior-to-biofilm formation
[11] = Staphylococcus aureus, ATCC25923, 24 h, measured 24 hours after adding to existing biofilms, value in parentheses, read-out: Potency, IC50 Post-biofilm formation
[12] = Staphylococcus aureus, post-exposure, read-out: % Inhibition 400 μM POST
[13] = Staphylococcus aureus, pre-exposure, read-out: % Inhibition 400 μM PRE
[14] = read-out: Potency, IC50 Post-biofilm formation
[15] = read-out: Potency, IC50 Prior-to-biofilm formation
[16] = value in parentheses, read-out: Potency, IC50 Post-biofilm formation
[17] = value in parentheses, read-out: Potency, IC50 Prior-to-biofilm formation

Row | SMILES | ATP release from the biofilms [1] | Inhibition percentage (±SD) Post-biofilm formation [2] | Inhibition percentage (±SD) Prior-to-biofilm formation [2] | Log Reduction (average ±SD) [3] | MIC (single-cell bacteria) [µg/mL] | IC50 [4, 9] [µM] | IC50 [4, 10] [µg/mL] | IC50 [4, 11] [µg/mL] | inhibition at 400 µM [4, 12] [%] | inhibition at 400 µM [4, 13] [%] | reduction of the viable biofilm cells [4] [%] | Inhibition percentage (±SD) Post-biofilm formation (E. coli XL1 blue) | Inhibition percentage (±SD) Prior-to-biofilm formation (E. coli XL1 blue) | membrane depolarization [5] | Inhibition percentage (±SD) Post-biofilm formation [7] | Inhibition percentage (±SD) Prior-to-biofilm formation [7] | IC50 (S. aureus Newman; [14]) [µM] | IC50 (S. aureus Newman; [15]) [µM] | IC50 (S. aureus Newman; [16]) [µg/mL] | IC50 (S. aureus Newman; [17]) [µg/mL] | also measured
1 | CC(C)c1ccc2c(c1)CC[C@H]1[C@](C)(C(=O)N[C@@H](CC3CCCCC3)C(=O)O)CCC[C@]21C [Compound 22, N-(Abiet-8,11,13-trien-18-oyl) Cyclohexyl-L-alanine] | highly significant ATP leakage | 1.9 (±5.7) % | 48.8 (±4.8) % | 2.3 (±0.1) | 6.8 (≈ 15 µM) | 9.4 | 4.2 | 12.7 | 99.6 | 100 | ~50 | 14.2 (±13.1) % | 5.2 (±11.3) % | caused membrane depolarization | 4.4 (±5.8) % | 42.3 (±9.5) % | 48.2 | 7.9 | 21.9 | 3.6 | biocompatibility index (BI) (HL cells [6]): higher than 1
2 | CC(C)c1ccc2c(c1)CC[C@H]1[C@](C)(C(=O)N[C@H](Cc3c[nH]c4ccccc34)C(=O)O)CCC[C@]21C [Compound 25, N-(Abiet-8,11,13-trien-18-oyl) D-tryptophan] | highly significant ATP leakage | 38.0 (±9.3) % | 66.9 (±0.9) % | 6.2 (±0.4) | 29.3 (≈ 60.2 µM) | 33.2 | 16.2 | 41.9 | 102 | 102 | ~50 | 6.7 (±7.2) % | 8.7 (±5.6) % | caused membrane depolarization | 48.8 (±10.3) % | 70.3 (±5.6) % | 71.7 | 20.9 | 34.9 | 10.2 | IC50 ([4]; Staphylococcus aureus, ATCC25923, 24 h, measured 24 hours after adding to existing biofilms, read-out: Potency, IC50 Post-biofilm formation): < 100 µM; IC50 ([4]; measured 24 hours after adding to existing biofilms, read-out: Potency, IC50 Post-biofilm formation): 86.1 µM; viable cells (HL cells [8]; 100 μM): 23%; viable cells (HL cells [8]; concentrations up to 30 μM): 90.2%

Source: patent US20170247409A1, “ABIETANE-TYPE DITERPENOIDS” (UNIVERSITY OF HELSINKI, priority 2014, published 2017)
